Laboratory results reported in patent publication US10604514B2, “6-(5-membered heteroaryl)isoquinolin-3-yl carboxamides and preparation and use thereof” (Samumed, LLC, priority 2017, dated 2020).
pEC50: −log10 of the molar value. Where two headings read alike, the source gives them in different places.

How the values were obtained:
IL-6 = IL-6 inhibition in LPS-stimulated human peripheral blood mononuclear cells (HTRF); assay type: cell-based; settings: Homo sapiens, PBMC; for pEC50: IL-6, LPS-stimulated huPBMCs, HTRF; for inhibition at 10 µM: read-out: percent value in parentheses below EC50 >10
Summary of the method: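 EC50 from a 4-parameter fit of DMSO-normalized HTRF (665/620 nm) IL-6 signal, duplicates. Compound was added to fresh human PBMCs in 1% FBS RPMI for 2 h (top 10 μM, 3-fold, 0.25% DMSO) before 22 h stimulation with LPS at 50 ng/mL, 37 °C.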

[1] = tested on: Wnt activity (Sp5-Luc reporter in SW480 colon carcinoma cells); test: Wnt activity screening assay (Sp5-Luc reporter gene assay); assay type: cell-based, human; settings: Homo sapiens; for pEC50: Sp5-Luc reporter, SW480 cells, 36 to 48 hours; for inhibition at 10 µM: SW480, read-out: percent inhibition at 10 μM
Summary of the method: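 Compounds at 10 points (1:3 steps, top 10 μM, 0.1% DMSO final) were incubated 36 to 48 h at 37° C with stable Sp5-Luc SW480 reporter cells in 1% FBS medium. Luciferase luminescence was then read and expressed relative to DMSO-only cells. Four-parameter variable-slope fitting yielded EC50 values.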

DYRK1A kinase = DYRK1A kinase (Homo sapiens (Human), UniProt Q13627); test: DYRK1A kinase assay (Ser/Thr 18 peptide Z-lyte, FRET)
[2] = tested on: Tau phosphorylation at Ser396 (pSer396), SH-SY5Y cells; test: Tau phosphorylation at Ser396 (pSer396) in SH-SY5Y cells, ELISA/western blot; assay type: cell-based, human; settings: Homo sapiens; SH-SY5Y cells, overnight (16-18 h); read-out: pSer396 Tau EC50;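 also: cell lysates probed for reduced Tau pSer396 via ELISA (colorimetric) or western blot (chemiluminescence), both with one shared pSer396 antibody, EC50 for lowering phosphorylation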
Method: Two days before treatment, cells were seeded onto 96 well plates at 5×10^4 cells/well.
Wells were visually checked for cell death or change in morphology and supernatants were tested for cytotoxicity by measurement of lactate dehydrogenase release (LDH, CytoToxOne kit, Promega) if necessary.
Cells were lysed with RIPA buffer complemented with phosphatase and protease inhibitors then lysates were spun down at 12,000 g for 10 min to remove any cellular debris. Lysates are then either directly tested for pSer396 by ELISA (Life Technology, Kit KHB7031) or loaded on NuPage Bis-Tris gels for western blot analysis. Colorimetric detection of ELISA signal is performed by Cytation3 plate reader (Biotek) and the chemiluminescence signal for HRP-linked antibodies used in western blotting is detected using a Carestream Image Station. The same pSer396 antibody is used for detection of pTau in both assays.

[3] = tested on: SW480 colon carcinoma cells; test: Cell viability assay (CellTiter-Glo) in SW480 cells; assay type: cell-based, human; settings: Homo sapiens; for pEC50: 96 h, cell viability, SW480 cells, four days, CellTiter-Glo; for inhibition at 10 µM: SW480, read-out: percent inhibition at 10 μM;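 as to all read-outs here: SW480 cells stably carrying an Sp5-luciferase TCF/LEF reporter, luminescent ATP signal as viability measure, DMSO-treated cells as control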
[4] = tested on: LL29 cells (primary human fibroblasts derived from IPF patients), α-smooth muscle actin; test: Inhibition of fibrotic process: αSMA in TGF-β1-treated primary human fibroblasts from IPF patients (LL29 cells); assay type: cell-based; settings: Homo sapiens, Fibroblast; for pEC50: 96 h, % αSMA-positive LL29 cells, TGF-β1 20 ng/mL, 4 days
Summary of the method: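 Read-out is the percentage of αSMA-positive cells by high-content imaging, excluding SYTOX green-positive dead/apoptotic cells, normalized to TGF-β1-only wells on the same plate. LL29 cells were exposed for 4 days at 37 °C to 20 ng/mL TGF-β1 plus 11-point, 2-fold compound dilutions in 0.1% DMSO.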

GSK3β kinase = GSK3β kinase (Homo sapiens (Human), UniProt P49841); test: GSK3β kinase assay (Ser/Thr 09 peptide Z-lyte, FRET); assay type: biochemical; settings: method text calls the value IC50;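 also: Coumarin/fluorescein emission ratio converted to percent phosphorylation against unphosphorylated (0%) and phosphorylated (100%) controls, 1 h compound incubation at room temperature, 11-point threefold dilutions from 10 µM, run in duplicate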
[5] = DYRK1A kinase, method text calls the value IC50

GSK3β kinase, sequence (P49841 whole entry): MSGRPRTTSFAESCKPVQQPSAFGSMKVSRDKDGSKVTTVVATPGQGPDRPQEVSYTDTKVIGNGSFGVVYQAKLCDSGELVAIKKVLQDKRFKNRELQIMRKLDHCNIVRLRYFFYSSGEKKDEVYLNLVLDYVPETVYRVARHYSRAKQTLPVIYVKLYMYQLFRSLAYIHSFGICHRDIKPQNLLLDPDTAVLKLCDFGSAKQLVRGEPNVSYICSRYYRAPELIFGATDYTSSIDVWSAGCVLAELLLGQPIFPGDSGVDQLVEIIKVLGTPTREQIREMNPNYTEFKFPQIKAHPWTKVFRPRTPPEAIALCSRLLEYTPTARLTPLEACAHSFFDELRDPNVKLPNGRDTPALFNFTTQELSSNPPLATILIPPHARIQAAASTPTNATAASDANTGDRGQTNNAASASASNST

pEC50 (IL-6) | pEC50 [1] | pEC50 (DYRK1A kinase; [5]) | pEC50 [2] | pEC50 [3] | pEC50 (GSK3β kinase) | pEC50 (DYRK1A kinase) | Structure (SMILES) | pEC50 [4] | inhibition at 10 µM (IL-6) | inhibition at 10 µM [1] | inhibition at 10 µM [3] | inhibition at 10 µM ([4]; read-out: percent inhibition at 10 μM)
5.87 | 5.39 | 8.15 | 6.30 | 5.16 | 6.86 |  | Cc1ncc(-c2ccc3cnc(NC(=O)[C@H]4CC[C@H](N(C)C5COC5)CC4)cc3c2)o1 [Compound 37, trans-4-(methyl(oxetan-3-yl)amino)-N-(6-(2-methyloxazol-5-yl)isoquinolin-3-yl)cyclohexane-1-carboxamide] | 6.61 |  |  |  | 
< 5.00 | 6.13 | 8.22 | 7.17 | 5.97 | 8.05 |  | Cc1nnc(-c2ccc3cnc(NC(=O)C4CCN(CCC(F)(F)F)CC4)cc3c2)s1 [Compound 38, N-(6-(5-Methyl-1,3,4-thiadiazol-2-yl)isoquinolin-3-yl)-1-(3,3,3-trifluoropropyl)piperidine-4-carboxamide] | 6.95 | 3.2% |  |  | 
5.03 | < 5.00 |  | 6.27 | < 5.00 | 7.02 | 7.82 | [2H]C1([2H])OC([2H])([2H])C([2H])([2H])N(CC(=O)Nc2cc3cc(-c4cnn(C)c4)ccc3cn2)C1([2H])[2H] [Compound 39, N-(6-(1-Methyl-1H-pyrazol-4-yl)isoquinolin-3-yl)-2-(morpholino-d8) acetamide] | 5.59 |  | 36.3% | 27.3% | 
5.01 | < 5.00 |  | 6.16 | < 5.00 | 6.92 | 7.54 | [2H]C1([2H])OC([2H])([2H])C([2H])([2H])N(CC(=O)Nc2cc3cc(-c4cnc(C)o4)ccc3cn2)C1([2H])[2H] [Compound 40, N-(6-(2-Methyloxazol-5-yl)isoquinolin-3-yl)-2-(morpholino-d8)acetamide] | 5.43 |  | 29.6% | 27% | 
< 5.00 | < 5.00 |  | 6.06 | < 5.00 | 6.69 | 7.57 | [2H]C1([2H])OC([2H])([2H])C([2H])([2H])N(CC(=O)Nc2cc3cc(-c4cnc(C)s4)ccc3cn2)C1([2H])[2H] [Compound 41, N-(6-(2-Methylthiazol-5-yl)isoquinolin-3-yl)-2-(morpholino-d8)acetamide] | 5.91 | 9.4% | 29.7% | 10.7% | 
< 5.00 | < 5.00 | 7.92 | < 5.00 | < 5.00 | 5.33 |  | C[C@H]1CN(C)CCN1C(=O)Nc1cc2cc(-c3cnn(C)c3)ccc2cn1 [Compound 42, (S)-2,4-Dimethyl-N-(6-(1-methyl-1H-pyrazol-4-yl)isoquinolin-3-yl) piperazine-1-carboxamide] | < 5.00 | 6.4% | 25.5% | 26.5% | 6.4%
5.97 | 6.62 | 8.70 | 6.44 | 5.30 | 7.18 |  | Cc1ncc(-c2ccc3cnc(NC(=O)[C@H]4CC[C@H](CO)CC4)cc3c2)o1 [Compound 43, trans-4-(hydroxymethyl)-N-(6-(2-methyloxazol-5-yl)isoquinolin-3-yl)cyclohexane-1-carboxamide] | 6.64 |  |  |  | 
5.95 | 6.10 | 8.30 | 6.35 | 5.55 | 7.19 |  | Cc1ncc(-c2ccc3cnc(NC(=O)[C@H]4CC[C@H](N(C)CC(F)F)CC4)cc3c2)o1 [Compound 44, trans-4-((2,2-Difluoroethyl)(methyl)amino)-N-(6-(2-methyloxazol-5-yl)isoquinolin-3-yl)cyclohexane-1-carboxamide] | 6.61 |  |  |  | 
5.42 | 6.14 |  | 7.04 | 5.98 | 7.64 | 8.22 | Cc1nnc(-c2ccc3cnc(NC(=O)C4CCN(C)CC4)cc3c2)s1 [Compound 46, 1-Methyl-N-(6-(5-methyl-1,3,4-thiadiazol-2-yl)isoquinolin-3-yl)piperidine-4-carboxamide] | 6.19 |  |  |  | 
6.02 | 6.04 | 8.22 | 6.76 | 6.12 | 7.19 |  | Cc1ncc(-c2ccc3cnc(NC(=O)C4CCN(C)CC4)cc3c2)o1 [Compound 47, 1-Methyl-N-(6-(2-methyloxazol-5-yl)isoquinolin-3-yl)piperidine-4-carboxamide] | 6.58 |  |  |  | 
5.04 | 6.09 | 7.70 | 6.44 | 5.41 | 7.27 |  | COC1CCN(CC(=O)Nc2cc3cc(-c4cnc(C)o4)ccc3cn2)CC1 [Compound 48, 2-(4-Methoxypiperidin-1-yl)-N-(6-(2-methyloxazol-5-yl)isoquinolin-3-yl) acetamide] | 6.14 |  |  |  | 
< 5.00 | < 5.00 | 7.68 | 6.87 | 5.54 | 8.22 |  | COC1CCN(CC(=O)Nc2cc3cc(-c4nnc(C)s4)ccc3cn2)CC1 [Compound 49, 2-(4-Methoxypiperidin-1-yl)-N-(6-(5-methyl-1,3,4-thiadiazol-2-yl)isoquinolin-3-yl)acetamide] | 6.19 | 9% | 32.9% |  | 
5.04 | 7.55 | 7.70 | 6.11 | < 5.00 | 6.66 |  | Cc1ncc(-c2ccc3cnc(NC(=O)N4CCC(N5CCOCC5)CC4)cc3c2)o1 [Compound 50, N-(6-(2-Methyloxazol-5-yl)isoquinolin-3-yl)-4-morpholinopiperidine-1-carboxamide] | 5.83 |  |  | 43% | 
5.49 | 7.44 | 7.85 | 6.18 | 5.40 | 6.46 |  | Cc1ncc(-c2ccc3cnc(NC(=O)N4CC[C@H](N)[C@@H](F)C4)cc3c2)o1 [Compound 51, (3S,4S)-4-Amino-3-fluoro-N-(6-(2-methyloxazol-5-yl)isoquinolin-3-yl) piperidine-1-carboxamide] | 5.60 |  |  |  | 
5.43 | 6.03 | 8.05 | 5.96 | 5.40 | 6.81 |  | Cc1ncc(-c2ccc3cnc(NC(=O)N4CCC(N(C)CC(F)F)CC4)cc3c2)o1 [Compound 52, 4-((2,2-Difluoroethyl)(methyl)amino)-N-(6-(2-methyloxazol-5-yl)isoquinolin-3-yl)piperidine-1-carboxamide] | 5.76 |  |  |  | 
5.03 | 5.55 | 7.42 | 5.64 | 5.35 | 6.44 |  | Cc1ncc(-c2ccc3cnc(NC(=O)N4CC[C@H](NC(C)C)[C@@H](F)C4)cc3c2)o1 [Compound 53, (3 S,4S)-3-Fluoro-4-(isopropylamino)-N-(6-(2-methyloxazol-5-yl)isoquinolin-3-yl)piperidine-1-carboxamide] | 5.80 |  |  |  | 
5.02 | 6.03 | 8.15 | 7.01 | 5.49 | 8.22 |  | COC1CCN(CC(=O)Nc2cc3cc(-c4cn(C)nn4)ccc3cn2)CC1 [Compound 54, 2-(4-Methoxypiperidin-1-yl)-N-(6-(1-methyl-1H-1,2,3-triazol-4-yl)isoquinolin-3-yl)acetamide] | 6.39 |  |  |  | 
< 5.00 | 5.43 | 8.22 | 6.75 | 5.89 | 7.06 |  | Cc1ncc(-c2cc3cc(NC(=O)[C@H]4CC[C@H](N5CCOCC5)CC4)ncc3cc2F)o1 [Compound 55, trans-N-(7-Fluoro-6-(2-methyloxazol-5-yl)isoquinolin-3-yl)-4-morpholinocyclohexane-1-carboxamide] | 6.17 | 18.3% |  |  | 
